The values that follow are results of earlier work, collected in US20120202839A1, “METHODS AND COMPOSITIONS FOR DETERRING ABUSE OF ORALLY ADMINISTERED PHARMACEUTICAL PRODUCTS” (priority 2004, published 2012).

For this series the following is noted: oral ingestion; typical threshold.

For the molecule `O=S(=O)([O-])[O-].[Zn+2]` [ZINC SULFATE], the “amount ingested above which emesis is induced, typically” value is on record as “more than 0.6 gm”.
